This is an account of results in ChEMBL document CHEMBL1781948, “Cytotoxic veraguamides, alkynyl bromide-containing cyclic depsipeptides from the marine cyanobacterium cf. Oscillatoria margaritifera” (2011).

Activity calls are given as the source filed them. No cut-off for these calls is given here. Where a SMILES comes first, the peptide text is derived from it. [ ]: non-standard residue; d: D form. The star is where a group is joined. Hmpa(2S,3S) = CC[C@H](C)[C@H](O)C(=O)O; X1 = C[C@H](C(=O)*)[C@H](O)CCCC#CBr; NMeV = CN[C@H](C(=O)O)C(C)C; Hiv = CC(C)[C@H](O)C(=O)O

This assay concerns NCI-H460. As to the kind of experiment: Cytotoxicity against human H460 cells after 48 hrs by MTT assay. Format: functional.

Take `CCOC(=O)[C@H](C(C)C)N(C)C(=O)[C@@H]1CCCN1C(=O)[C@@H](OC(=O)[C@H](C(C)C)N(C)C(=O)[C@@H](NC(=O)[C@@H](C)[C@H](O)CCCC#CBr)C(C)C)C(C)C` (X1-V[NMeV][Hiv]P[NMeV]-OEt): the LD50 result is “Active”.

Regarding `CCOC(=O)[C@H](C(C)C)N(C)C(=O)[C@@H]1CCCN1C(=O)[C@@H](OC(=O)[C@H](C(C)C)N(C)C(=O)[C@@H](NC(=O)[C@@H](C)[C@H](O)CCCC#CBr)C(C)C)[C@@H](C)CC` (X1-V[NMeV][Hmpa(2S,3S)]P[NMeV]-OEt), the LD50 result is “Active”. On to `C#CCCC[C@H]1OC(=O)[C@H](C(C)C)N(C)C(=O)[C@@H]2CCCN2C(=O)[C@H]([C@@H](C)CC)OC(=O)[C@H](C(C)C)N(C)C(=O)[C@H](C(C)C)NC(=O)[C@H]1C`, for which the LD50 entry was “Active”. On the same count and under the same terms, the same measure for `CC(C)[C@@H]1NC(=O)[C@@H](C)[C@@H](CCCC#CBr)OC(=O)[C@H](C(C)C)N(C)C(=O)[C@@H]2CCCN2C(=O)[C@H](C(C)C)OC(=O)[C@H](C(C)C)N(C)C1=O`: “Active”.

`CC[C@H](C)[C@@H]1OC(=O)[C@H](C(C)C)N(C)C(=O)[C@H](C(C)C)NC(=O)[C@@H](C)[C@@H](CCCC#CBr)OC(=O)[C@H](C(C)C)N(C)C(=O)[C@@H]2CCCN2C1=O` [VERAGUAMIDE A]: the CC50 (NCI-H460, 48 h, read-out: LD50 (the source's name)) was determined as 0.141 µM.
